This passage reports remaining binding and Kd results from patent publication US12121521B2, “Uses of salt-inducible kinase (SIK) inhibitors for treating osteoporosis” (The General Hospital Corporation, priority 2016, dated 2024).

Common to all, as to type: binding
One test has as its target T1, ARK5 (Homo sapiens, UniProt O60285).
T1 construct: T7 phage fusion (most kinases) or DNA tag for qPCR (HEK-293-made kinases); purchased DiscoverX (Fremont, CA); host or cells: E. coli BL21-derived host (T7 phage) or HEK-293
Briefly: ScanEDGE kinase panel (DiscoverX). To be noted: read-out: % of control activity at 71 nM. As to the method: (§1) ScanEDGE kinase assays paneling specificity across a panel of 96 representative kinases were performed by DiscoverX (Fremont, CA). For most assays, kinase-tagged T7 phage strains were grown in parallel in 24-well blocks in an E. coli host derived from the BL21 strain. Bacteria were grown to log phase and infected with T7 phage from frozen stock (MOI=0.4) and incubated with shaking at 32° C. until lysis (90-150 minutes). The lysates were centrifuged (6000×g) and filtered (0.2 μm) to remove cell debris. The remaining kinases were produced in HEK-293 cells and subsequently tagged with DNA for qPCR detection. […] The liganded beads were blocked with excess biotin and washing with blocking buffer (SeaBlock (Pierce), 1% BSA, 0.05% Tween 20, 1 mM DTT) to remove unbound ligand and to reduce non-specific phage binding. […] Test compounds were prepared as 40× stocks in 100% DMSO and directly diluted into the assay. All reactions were performed in polypropylene 384 well plates in a final volume of 40 μl. […] The kinase concentration in the eluates was measured by qPCR.

A further test deals with T2, BTK (Homo sapiens, UniProt Q06187).
T2 construct: T7 phage fusion (most kinases) or DNA tag for qPCR (HEK-293-made kinases); purchased DiscoverX (Fremont, CA); host or cells: E. coli BL21-derived host (T7 phage) or HEK-293
T2 sequence (Q06187 whole entry, the tested form may be a part): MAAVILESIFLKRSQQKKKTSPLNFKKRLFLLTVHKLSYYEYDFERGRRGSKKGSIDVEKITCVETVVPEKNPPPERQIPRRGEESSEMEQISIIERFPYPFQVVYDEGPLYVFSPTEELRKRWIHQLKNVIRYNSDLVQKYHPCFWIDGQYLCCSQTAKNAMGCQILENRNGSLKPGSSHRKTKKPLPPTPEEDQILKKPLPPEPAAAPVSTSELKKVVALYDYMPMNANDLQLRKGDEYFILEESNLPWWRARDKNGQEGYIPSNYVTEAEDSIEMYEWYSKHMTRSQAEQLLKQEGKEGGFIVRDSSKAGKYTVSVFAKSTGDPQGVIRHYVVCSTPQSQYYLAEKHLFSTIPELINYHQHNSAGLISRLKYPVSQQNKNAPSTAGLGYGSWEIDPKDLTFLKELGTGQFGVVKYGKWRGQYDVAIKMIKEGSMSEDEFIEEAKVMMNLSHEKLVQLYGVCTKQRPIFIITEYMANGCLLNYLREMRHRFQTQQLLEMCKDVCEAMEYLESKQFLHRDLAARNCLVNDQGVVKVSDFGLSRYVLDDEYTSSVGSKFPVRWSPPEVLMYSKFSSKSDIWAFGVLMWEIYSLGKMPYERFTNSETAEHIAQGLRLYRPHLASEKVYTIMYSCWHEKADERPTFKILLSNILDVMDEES
Briefly: ScanEDGE kinase panel (DiscoverX). The following applies: read-out: % of control activity at 71 nM. As to the method: as §1

The target in a further test is T3, CHEK1 (Homo sapiens, UniProt O14757).
T3 construct: T7 phage fusion (most kinases) or DNA tag for qPCR (HEK-293-made kinases); purchased DiscoverX (Fremont, CA); host or cells: E. coli BL21-derived host (T7 phage) or HEK-293
Put plainly: ScanEDGE kinase panel (DiscoverX). The following applies: read-out: % of control activity at 71 nM. As to the method: as §1

The target in the next test is T4, DCAMKL1 (Homo sapiens, UniProt O15075).
T4 construct: T7 phage fusion (most kinases) or DNA tag for qPCR (HEK-293-made kinases); purchased DiscoverX (Fremont, CA); host or cells: E. coli BL21-derived host (T7 phage) or HEK-293
Put plainly: ScanEDGE kinase panel (DiscoverX). To be noted: read-out: % of control activity at 71 nM. As to the method: as §1

Another test deals with T5, EGFR (Homo sapiens, UniProt P00533).
T5 construct: T7 phage fusion (most kinases) or DNA tag for qPCR (HEK-293-made kinases); purchased DiscoverX (Fremont, CA); host or cells: E. coli BL21-derived host (T7 phage) or HEK-293
T5 sequence (P00533 25-1210): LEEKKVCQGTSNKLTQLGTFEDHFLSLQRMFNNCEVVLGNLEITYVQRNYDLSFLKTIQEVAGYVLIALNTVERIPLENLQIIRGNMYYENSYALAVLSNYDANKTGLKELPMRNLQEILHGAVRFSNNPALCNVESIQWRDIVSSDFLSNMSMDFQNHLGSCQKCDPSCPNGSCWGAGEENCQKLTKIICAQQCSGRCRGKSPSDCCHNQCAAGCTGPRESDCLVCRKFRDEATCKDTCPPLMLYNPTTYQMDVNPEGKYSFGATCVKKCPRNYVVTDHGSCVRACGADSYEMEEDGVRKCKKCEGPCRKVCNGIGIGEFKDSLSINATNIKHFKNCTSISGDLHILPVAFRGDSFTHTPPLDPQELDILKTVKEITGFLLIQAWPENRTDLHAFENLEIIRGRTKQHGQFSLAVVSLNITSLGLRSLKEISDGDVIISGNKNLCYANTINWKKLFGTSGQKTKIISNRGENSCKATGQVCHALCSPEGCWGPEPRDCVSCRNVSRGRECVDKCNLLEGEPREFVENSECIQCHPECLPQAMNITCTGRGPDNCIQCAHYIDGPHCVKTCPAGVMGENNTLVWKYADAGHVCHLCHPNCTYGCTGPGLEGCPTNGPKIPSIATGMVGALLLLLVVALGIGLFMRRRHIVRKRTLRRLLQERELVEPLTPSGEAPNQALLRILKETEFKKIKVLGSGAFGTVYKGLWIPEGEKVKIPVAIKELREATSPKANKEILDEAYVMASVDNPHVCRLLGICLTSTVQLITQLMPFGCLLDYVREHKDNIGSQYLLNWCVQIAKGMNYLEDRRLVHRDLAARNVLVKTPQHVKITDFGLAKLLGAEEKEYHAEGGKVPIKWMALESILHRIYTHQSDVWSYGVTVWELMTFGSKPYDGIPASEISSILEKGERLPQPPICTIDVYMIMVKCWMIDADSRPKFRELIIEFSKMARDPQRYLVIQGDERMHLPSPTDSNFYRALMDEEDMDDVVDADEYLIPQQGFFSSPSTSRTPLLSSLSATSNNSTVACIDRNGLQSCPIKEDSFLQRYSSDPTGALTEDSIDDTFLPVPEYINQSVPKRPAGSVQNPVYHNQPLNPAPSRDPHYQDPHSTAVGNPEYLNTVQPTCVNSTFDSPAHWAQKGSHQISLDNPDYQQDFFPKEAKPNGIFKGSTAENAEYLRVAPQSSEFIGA
Briefly: ScanEDGE kinase panel (DiscoverX). The following applies: read-out: % of control activity at 71 nM. As to the method: as §1

The target of a further test is T6, ERBB2 (Homo sapiens, UniProt P04626).
T6 construct: T7 phage fusion (most kinases) or DNA tag for qPCR (HEK-293-made kinases); purchased DiscoverX; host or cells: E. coli BL21-derived host (T7 phage) or HEK-293
Put plainly: ScanEDGE kinase panel (DiscoverX). To be noted: read-out: % of control activity at 71 nM. On the procedure: as §1

The next test addresses T7, FGFR2 (Homo sapiens, UniProt P21802).
T7 construct: T7 phage fusion (most kinases) or DNA tag for qPCR (HEK-293-made kinases); purchased DiscoverX; host or cells: E. coli BL21-derived host (T7 phage) or HEK-293
Put plainly: ScanEDGE kinase panel (DiscoverX). The following applies: read-out: % of control activity at 71 nM. On the procedure: as §1

For the next test, the target named is T8, IKK-beta (Homo sapiens, UniProt O14920).
T8 construct: T7 phage fusion (most kinases) or DNA tag for qPCR (HEK-293-made kinases); purchased DiscoverX; host or cells: E. coli BL21-derived host (T7 phage) or HEK-293
T8 sequence (O14920 whole entry, the tested form may be a part): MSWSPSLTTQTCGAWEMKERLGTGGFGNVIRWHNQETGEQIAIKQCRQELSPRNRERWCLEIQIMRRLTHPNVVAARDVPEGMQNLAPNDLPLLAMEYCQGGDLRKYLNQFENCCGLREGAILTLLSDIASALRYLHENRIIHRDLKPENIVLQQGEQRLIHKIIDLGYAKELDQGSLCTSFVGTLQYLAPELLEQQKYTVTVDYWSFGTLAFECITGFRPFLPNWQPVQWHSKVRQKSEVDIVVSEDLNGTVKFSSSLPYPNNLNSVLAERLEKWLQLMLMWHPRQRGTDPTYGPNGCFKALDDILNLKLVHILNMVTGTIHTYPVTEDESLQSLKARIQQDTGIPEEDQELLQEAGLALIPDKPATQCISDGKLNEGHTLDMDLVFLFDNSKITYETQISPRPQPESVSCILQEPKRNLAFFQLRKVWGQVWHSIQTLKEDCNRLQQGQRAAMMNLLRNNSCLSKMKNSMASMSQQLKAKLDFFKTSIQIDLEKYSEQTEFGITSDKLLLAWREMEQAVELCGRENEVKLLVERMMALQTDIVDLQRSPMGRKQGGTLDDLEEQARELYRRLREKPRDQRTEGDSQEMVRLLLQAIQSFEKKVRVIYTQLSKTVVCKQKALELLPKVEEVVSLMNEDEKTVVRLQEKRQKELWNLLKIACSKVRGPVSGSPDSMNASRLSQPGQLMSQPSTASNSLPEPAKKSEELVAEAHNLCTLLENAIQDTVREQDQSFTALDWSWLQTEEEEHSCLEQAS
Put plainly: ScanEDGE kinase panel (DiscoverX). The following applies: read-out: % of control activity at 71 nM. As to the method: as §1

In a further test the target is T9, JAK2 (Homo sapiens, UniProt O60674).
T9 construct: T7 phage fusion (most kinases) or DNA tag for qPCR (HEK-293-made kinases); purchased DiscoverX; host or cells: E. coli BL21-derived host (T7 phage) or HEK-293
T9 sequence (O60674 840-1132 limits assumed): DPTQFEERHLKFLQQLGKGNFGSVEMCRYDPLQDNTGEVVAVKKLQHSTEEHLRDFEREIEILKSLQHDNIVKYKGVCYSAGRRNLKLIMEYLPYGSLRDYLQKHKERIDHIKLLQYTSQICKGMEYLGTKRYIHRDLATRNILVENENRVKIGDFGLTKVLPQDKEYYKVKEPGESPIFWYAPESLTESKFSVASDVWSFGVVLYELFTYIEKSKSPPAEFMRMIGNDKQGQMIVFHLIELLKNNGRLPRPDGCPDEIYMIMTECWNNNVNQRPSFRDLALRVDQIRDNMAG
Put plainly: ScanEDGE kinase panel (DiscoverX). The following applies: read-out: % of control activity at 71 nM. As to the method: as §1

Another test deals with T10, JNK1 (Homo sapiens, UniProt P45983).
T10 construct: T7 phage fusion (most kinases) or DNA tag for qPCR (HEK-293-made kinases); purchased DiscoverX; host or cells: E. coli BL21-derived host (T7 phage) or HEK-293
Put plainly: ScanEDGE kinase panel (DiscoverX). The following applies: read-out: % of control activity at 71 nM. On the procedure:
as §1

The target of another test is T11, PLK3 (Homo sapiens, UniProt Q9H4B4).
T11 construct: T7 phage fusion (most kinases) or DNA tag for qPCR (kinases made in HEK-293); purchased DiscoverX; host or cells: E. coli BL21-derived host (T7 phage) or HEK-293
T11 sequence (Q9H4B4 whole entry, the tested form may be a part): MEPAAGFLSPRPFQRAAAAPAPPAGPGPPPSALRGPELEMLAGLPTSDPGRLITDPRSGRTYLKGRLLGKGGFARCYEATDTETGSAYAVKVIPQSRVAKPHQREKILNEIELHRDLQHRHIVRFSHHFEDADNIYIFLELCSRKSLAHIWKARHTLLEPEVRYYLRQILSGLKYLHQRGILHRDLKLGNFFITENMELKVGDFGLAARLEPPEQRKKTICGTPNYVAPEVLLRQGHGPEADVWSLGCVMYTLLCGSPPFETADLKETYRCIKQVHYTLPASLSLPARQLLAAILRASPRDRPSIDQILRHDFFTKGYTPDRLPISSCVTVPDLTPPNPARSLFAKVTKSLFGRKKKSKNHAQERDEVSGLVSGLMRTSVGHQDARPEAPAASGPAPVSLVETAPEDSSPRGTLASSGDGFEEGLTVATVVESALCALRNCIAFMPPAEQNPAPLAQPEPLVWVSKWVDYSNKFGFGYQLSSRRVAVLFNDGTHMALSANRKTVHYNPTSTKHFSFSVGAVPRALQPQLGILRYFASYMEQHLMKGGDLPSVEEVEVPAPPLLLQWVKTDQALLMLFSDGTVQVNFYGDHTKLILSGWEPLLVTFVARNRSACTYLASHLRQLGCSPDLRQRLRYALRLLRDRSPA
Put plainly: ScanEDGE kinase panel (DiscoverX). To be noted: read-out: % of control activity at 71 nM. As to the method:
as §1

The target of the next test is T12, RSK2 (Homo sapiens, UniProt P51812).
T12 construct: T7 phage fusion (most kinases) or DNA tag after HEK-293 expression; purchased DiscoverX (Fremont, CA), ScanEDGE; host or cells: T7 phage in E. coli BL21-derived host, or HEK-293
Briefly: ScanEDGE kinase panel (DiscoverX). The following applies: read-out: % of control activity at 71 nM. As to the method: as §1

In another test the target is T13, TGFBR1 (Homo sapiens, UniProt P36897).
T13 construct: T7 phage fusion (most kinases) or DNA tag after HEK-293 expression; purchased DiscoverX (Fremont, CA), ScanEDGE; host or cells: T7 phage in E. coli BL21-derived host, or HEK-293
Briefly: ScanEDGE kinase panel (DiscoverX). To be noted: read-out: % of control activity at 71 nM. On the procedure: as §1

Another test addresses T14, p38-alpha (Homo sapiens, UniProt Q16539).
T14 construct: T7 phage fusion (most kinases) or DNA tag for qPCR (kinases made in HEK-293); purchased DiscoverX; host or cells: E. coli BL21-derived host (T7 phage) or HEK-293
Briefly: ScanEDGE kinase panel (DiscoverX). To be noted: read-out: % of control activity at 71 nM. On the procedure: as §1

For another test, the target named is T15, p38-beta (Homo sapiens, UniProt Q15759).
T15 construct: T7 phage fusion (most kinases) or DNA tag for qPCR (kinases made in HEK-293); purchased DiscoverX; host or cells: E. coli BL21-derived host (T7 phage) or HEK-293
T15 sequence (Q15759 whole entry, the tested form may be a part): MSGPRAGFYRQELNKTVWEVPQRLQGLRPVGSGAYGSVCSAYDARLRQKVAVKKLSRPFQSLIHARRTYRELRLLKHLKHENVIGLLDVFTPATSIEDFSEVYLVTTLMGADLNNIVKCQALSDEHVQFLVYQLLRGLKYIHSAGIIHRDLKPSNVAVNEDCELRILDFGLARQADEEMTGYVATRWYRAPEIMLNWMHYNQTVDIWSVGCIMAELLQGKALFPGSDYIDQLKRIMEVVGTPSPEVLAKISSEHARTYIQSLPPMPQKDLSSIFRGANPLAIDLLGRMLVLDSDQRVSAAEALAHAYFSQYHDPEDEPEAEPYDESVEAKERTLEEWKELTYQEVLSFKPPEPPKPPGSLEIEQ
Briefly: ScanEDGE kinase panel (DiscoverX). To be noted: read-out: % of control activity at 71 nM. As to the method:
as §1

The next test addresses T16, SIK2 (Homo sapiens, UniProt Q9H0K1).
T16 construct: T7 phage fusion (most kinases) or DNA tag after HEK-293 expression; purchased DiscoverX (Fremont, CA), ScanEDGE; host or cells: T7 phage in E. coli BL21-derived host, or HEK-293
Briefly: Kd determination for SIK2 (bound kinase measured by qPCR). As to the method:
FIGS. 5A to 5J: Small molecule SIK inhibitors regulate SOST and RANKL expression by osteocytes. (FIG. 5A) Structure of YKL-04-114 (top panel, left), YKL-05-093 (top panel, right), and YKL-05-093 Kd determination curves for SIK2 (bottom panels). For the Kd determination curves, the y-axis represents the amount of bound kinase measured by qPCR (see methods), and the x-axis represents the corresponding compound concentration in nM. (FIG. 5B) Ocy454 cells were treated with YKL-04-114 (10 μM) for the indicated times, followed by immunoblotting of whole cell lysates as indicated. (FIG. 5C) Ocy454 cells were treated with the indicated concentrations of YKL-04-114 for 60 minutes, followed by immunoblotting of whole cell lysates as indicated. […] Right: quantification of nuclear fraction (defined as nuclear/total) of HDAC4 or CRTC2. * indicates p<0.01 comparing treatment vs vehicle. […] Quantification of HDAC4 S246 phosphorylation, as assessed by densitometric analysis of immunoblots, is shown. * indicates p<0.01 comparing treatment vs vehicle. # indicates p<0.05 for the same comparison. […] (FIG. 5G) Control and SIK2/3 deficient cells were treated with YKL-05-093 (0.5 μM) for 4 hours and SOST transcript abundance was measured by RT-qPCR. (FIG. 5H) Control and CRTC2 shRNA cells were treated with PTH (1 nM) or YKL-05-093 (0.5 μM) for 4 hours and RANKL transcript abundance was measured by RT-qPCR. […]

pKd: −log10 of the molar value.

In general, pKd refers to −log10 of the Kd, conventionally taken in molar units. A higher pKd goes with a low Kd.

T7 sequence (P21802 22-821): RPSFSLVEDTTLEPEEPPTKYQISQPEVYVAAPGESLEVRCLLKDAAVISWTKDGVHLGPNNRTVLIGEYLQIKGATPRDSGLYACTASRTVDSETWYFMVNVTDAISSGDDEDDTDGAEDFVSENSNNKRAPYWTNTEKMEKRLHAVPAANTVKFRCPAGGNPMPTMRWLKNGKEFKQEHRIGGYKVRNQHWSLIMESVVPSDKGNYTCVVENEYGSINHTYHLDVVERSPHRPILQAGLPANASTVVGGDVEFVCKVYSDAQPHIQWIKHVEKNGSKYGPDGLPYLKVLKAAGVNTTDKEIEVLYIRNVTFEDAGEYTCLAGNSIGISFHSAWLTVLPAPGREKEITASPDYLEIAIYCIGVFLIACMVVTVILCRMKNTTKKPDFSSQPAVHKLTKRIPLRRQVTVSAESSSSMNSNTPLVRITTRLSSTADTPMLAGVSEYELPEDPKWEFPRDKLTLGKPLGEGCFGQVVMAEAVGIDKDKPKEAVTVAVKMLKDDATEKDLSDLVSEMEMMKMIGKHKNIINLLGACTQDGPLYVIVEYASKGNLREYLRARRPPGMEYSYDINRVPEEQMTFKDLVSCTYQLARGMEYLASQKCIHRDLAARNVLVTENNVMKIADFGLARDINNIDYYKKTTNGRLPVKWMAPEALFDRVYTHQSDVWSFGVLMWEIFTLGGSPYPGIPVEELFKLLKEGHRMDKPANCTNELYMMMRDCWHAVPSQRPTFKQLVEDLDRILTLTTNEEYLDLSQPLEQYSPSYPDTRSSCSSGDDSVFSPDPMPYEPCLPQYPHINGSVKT

As for `COc1ccc(N2C(=O)N(c3c(C)cccc3C)Cc3cnc(Nc4ccc(C5CCN(C)CC5)c(OC)c4)nc32)c(OC)c1` [YKL-05-093], the remaining binding at 0.071 µM turned out to be 77% on ARK5; 0.45% at BTK; 42% at CHEK1; 89% at DCAMKL1; 5.9% on EGFR; 3.5% at ERBB2. Further, the remaining binding at 0.071 µM stood at 8.9% at FGFR2; 84% at IKK-beta; 13% at JAK2; 97% at JNK1; 90% on PLK3; 51% at RSK2. The remaining binding at 0.071 µM was determined as 90% on TGFBR1, 0.95% at p38-alpha and 47% at p38-beta. On SIK2, this molecule had a pKd of 8.15.
